Measurements: US20160221965A1, “DISUBSTITUTED TRIFLUOROMETHYL PYRIMIDINONES AND THEIR USE” (BAYER PHARMA AKTIENGESELLSCHAFT, priority 2013, published 2016)

Legend:
[1] = biological target: T1, human CCR2 (Homo sapiens, UniProt P41597); assay: Functional Ca2+ release test (B-1); format: cell-based; conditions: Chem-1 cell line transfected with human CCR2, inhibition of MCP-1 effect, MCP-1 at EC50 (about 5 nM), Fluo-4
T1 construct: host or cells: Chem-1 cell line
T1 sequence (P41597 1-360 isoform P41597-2): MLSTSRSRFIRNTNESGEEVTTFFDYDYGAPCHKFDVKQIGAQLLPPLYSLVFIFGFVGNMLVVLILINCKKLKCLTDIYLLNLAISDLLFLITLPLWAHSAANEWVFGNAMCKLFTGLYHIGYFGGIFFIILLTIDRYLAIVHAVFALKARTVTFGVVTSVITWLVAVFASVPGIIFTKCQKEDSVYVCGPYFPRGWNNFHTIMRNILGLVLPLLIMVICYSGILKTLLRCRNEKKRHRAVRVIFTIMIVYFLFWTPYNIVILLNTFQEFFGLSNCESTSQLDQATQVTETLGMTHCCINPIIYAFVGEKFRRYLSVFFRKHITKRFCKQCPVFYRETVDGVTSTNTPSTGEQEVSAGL
Protocol: The antagonistic action of test substances on CCR2 was determined in a functional Ca^2+ release test. Binding of CCL2/MCP-1 to CCR2 leads to a change in the conformation of the receptor resulting in Gi/Gq protein activation and intracellular signal cascade. This involves, inter alia, an intracellular Ca^2+ release. The test cell used was a Chem-1 cell line transfected with human CCR2 (ChemiSCREEN™ CCR2B Calcium-Optimized FLIPR Cell Line, Merck Millipore).
(§1) The test substances were dissolved in dimethyl sulphoxide (DMSO) at a concentration of 10 mM and serially diluted with DMSO in steps of 1:3.16 for a 10-point dose/activity analysis. According to the desired test concentrations, the substances were pre-diluted in Tyrode with 2 mM CaCl2 and 0.05% BSA.
The cells, cultivated in DMEM high glucose [supplemented with 10% FCS, 1 mM pyruvate, 15 mM HEPES, 500 μg/ml geniticin and non-essential amino acids (NEAA)], were sown at 5000 cells/25 μl in 384 well, μCLEAR/black cell culture plates from Greiner (#781092) and incubated at 37° C. for 24 h. The sowing medium consisted of DMEM high glucose [supplemented with 5% FCS, 1 mM pyruvate, 15 mM HEPES, 50 U/ml penicillin, 50 μg/ml streptomycin and non-essential amino acids (NEAA)]. The medium was then removed and the cells were charged for 60 min at 37° C. with Fluo-4 dye [25 μl Tyrode with 3 μM Fluo-4 AM (1 mM DMSO stock solution), 0.4 mg/ml Brilliant Black, 2.5 mM probenicid, 0.03% Pluronic F-127]. The cells were pre-incubated for 10 min with 10 μl of the test substances diluted in buffer, and 20 μl of agonist solution (MCP-1 in Tyrode with 0.05% BSA) were then added. MCP-1 was employed at the concentration which corresponds to the EC50 which had been determined in a preliminary test (usually about 5 nM). Ca^2+ release was monitored over a period of 120 s in 1 s increments in a proprietary fluorescence imaging reader. The molar concentration of the test substance which caused 50% inhibition of the MCP-1 effect (IC50) was determined using a 4-parameter logistic function (Hill function).

[2] = biological target: T2, murine CCR2 (Mus musculus, UniProt P51683); assay: Functional β-arrestin recruiting test with human MCP-1 (B-2a); format: cell-based; conditions: U2OS β-arrestin cell line transfected with murine CCR2; agonist human MCP-1 at EC50 (about 3 nM)
T2 construct: host or cells: U2OS β-arrestin cell line
T2 sequence (P51683 whole entry): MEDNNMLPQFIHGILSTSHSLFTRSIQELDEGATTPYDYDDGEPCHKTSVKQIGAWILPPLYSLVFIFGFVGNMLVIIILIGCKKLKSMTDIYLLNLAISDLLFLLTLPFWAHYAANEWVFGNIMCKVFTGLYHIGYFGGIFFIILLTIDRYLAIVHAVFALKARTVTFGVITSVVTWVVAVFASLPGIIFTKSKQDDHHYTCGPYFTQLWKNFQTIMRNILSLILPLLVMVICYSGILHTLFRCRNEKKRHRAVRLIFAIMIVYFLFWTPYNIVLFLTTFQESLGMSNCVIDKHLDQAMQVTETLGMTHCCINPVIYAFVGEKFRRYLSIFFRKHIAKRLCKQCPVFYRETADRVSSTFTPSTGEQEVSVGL
Protocol: The antagonistic action of test substances on CCR2 was determined in a β-arrestin test. The PathHunter β-arrestin GPCR test system (DiscoveRx Corporation, Ltd.) is a cell-based functional method for detecting binding of β-arrestin to an activated receptor. The molecular basis is a β-galactosidase complementation measured by the enzymatic conversion of a chemiluminescent substrate. The test cell used was a U2OS β-arrestin cell line transfected with murine CCR2 (93-0543C3, DiscoveRx Corporation, Ltd.).
as §1
The cells, cultivated in MEM Eagle (supplemented with 10% FCS, 50 U/ml of penicillin, 50 μg/ml of streptomycin, 250 μg/ml of hygromycin and 500 μg/ml of geniticin), were sown at 2000 cells/25 μl in 384 well, μCLEAR/black cell culture plates from Greiner (#781092) and incubated at 37° C. for 24 h. The sowing medium consisted of Opti-MEM (supplemented with 1% FCS, 50 U/ml of penicillin and 50 μg/ml of streptomycin). The cells were pre-incubated for 10 min with 10 μl of the test substances diluted in buffer, and 10 μl of agonist solution [human MCP-1 (PeproTech, #300-04) in Tyrode with 0.05% BSA] were then added. The human MCP-1 was employed at the concentration which corresponds to the EC50 which had been determined in a preliminary test (usually about 3 nM). After 90 min of incubation at 37° C., the solution was removed, and recruitment of β-arrestin to CCR2 was detected with the aid of the PathHunter detection reagent (93-001, DiscoveRx Corporation, Ltd.) according to the instructions of the manufacturer. Luminescence was measured after an incubation time of 60 min using a proprietary luminescence imaging measuring instrument. The molar concentration of the test substance which caused 50% inhibition of the MCP-1 effect (IC50) was determined using a 4-parameter logistic function (Hill function).

IC50 [1]	IC50 [2]	SMILES
6.5 nM	220 nM	Nc1nc(C(F)(F)F)c(Oc2ccc(F)c(Cl)c2)c(=O)[nH]1 [Example 4, 2-amino-5-(3-chloro-4-fluorophenoxy)-6-(trifluoromethyl)pyrimidin-4(3H)-one]
11 nM	300 nM	Nc1nc(C(F)(F)F)c(Cc2ccc(F)c(Cl)c2)c(=O)[nH]1 [Example 7, 2-amino-5-(3-chloro-4-fluorobenzyl)-6-(trifluoromethyl)pyrimidin-4(3H)-one]
14 nM	230 nM	O=c1[nH]c(CO)nc(C(F)(F)F)c1Cc1ccc(Cl)c(Cl)c1 [Example 51, 5-(3,4-Dichlorobenzyl)-2-(hydroxymethyl)-6-(trifluoromethyl)pyrimidin-4(3H)-one]
8.7 nM	210 nM	Nc1nc(C(F)(F)F)c(Oc2ccc(Cl)c(F)c2)c(=O)[nH]1 [Example 5, 2-amino-5-(4-chloro-3-fluorophenoxy)-6-(trifluoromethyl)pyrimidin-4(3H)-one]
42 nM	560 nM	Cc1ccc(Cc2c(C(F)(F)F)nc(N)[nH]c2=O)cc1Cl [Example 11, 2-amino-5-(3-chloro-4-methylbenzyl)-6-(trifluoromethyl)pyrimidin-4(3H)-one]
150 nM	970 nM	NC(=O)Cc1nc(C(F)(F)F)c(Cc2ccc(Cl)c(F)c2)c(=O)[nH]1 [Example 40]
33 nM	370 nM	Cc1nc(C(F)(F)F)c(Cc2ccc(Cl)c(Cl)c2)c(=O)[nH]1 [Example 18, 5-(3,4-Dichlorobenzyl)-2-methyl-6-(trifluoromethyl)pyrimidin-4(3H)-one]
110 nM	740 nM	CCCCc1nc(C(F)(F)F)c(Cc2ccc(Cl)c(Cl)c2)c(=O)[nH]1 [Example 22, 2-butyl-5-(3,4-dichlorobenzyl)-6-(trifluoromethyl)pyrimidin-4(3H)-one]
91 nM	800 nM	Cc1ccc(Cc2c(C(F)(F)F)nc(C3CC3)[nH]c2=O)cc1Cl [Example 29, 5-(3-chloro-4-methylbenzyl)-2-cyclopropyl-6-(trifluoromethyl)pyrimidin-4(3H)-one]
44 nM	290 nM	CCc1nc(C(F)(F)F)c(Cc2ccc(F)c(Cl)c2)c(=O)[nH]1 [Example 28, 5-(3-chloro-4-fluorobenzyl)-2-ethyl-6-(trifluoromethyl)pyrimidin-4(3H)-one]
31 nM	240 nM	CCc1nc(C(F)(F)F)c(Cc2ccc(Cl)c(C(F)(F)F)c2)c(=O)[nH]1 [Example 26, 5-[4-chloro-3-(trifluoromethyl)benzyl]-2-ethyl-6-(trifluoromethyl)pyrimidin-4(3H)-one]
90 nM	420 nM	NC(=O)Cc1nc(C(F)(F)F)c(Cc2ccc(F)c(Cl)c2)c(=O)[nH]1 [Example 44]
120 nM	220 nM	CCc1nc(C(F)(F)F)c(Cc2ccc(Cl)c(Cl)c2)c(=O)[nH]1 [Example 31, 5-(3,4-dichlorobenzyl)-2-ethyl-6-(trifluoromethyl)pyrimidin-4(3H)-one]
150 nM	520 nM	O=c1[nH]c(C2CC2)nc(C(F)(F)F)c1Cc1ccc(F)c(Cl)c1 [Example 34, 5-(3-chloro-4-fluorobenzyl)-2-cyclopropyl-6-(trifluoromethyl)pyrimidin-4(3H)-one]
100 nM	550 nM	O=c1[nH]c(C2CC2)nc(C(F)(F)F)c1Cc1ccc(Cl)c(Cl)c1 [Example 30, 2-cyclopropyl-5-(3,4-dichlorobenzyl)-6-(trifluoromethyl)pyrimidin-4(3H)-one]
17 nM	330 nM	NC(=O)Nc1nc(C(F)(F)F)c(Cc2ccc(Cl)c(Cl)c2)c(=O)[nH]1 [Example 56, 1-[5-(3,4-Dichlorobenzyl)-6-oxo-4-(trifluoromethyl)-1,6-dihydropyrimidin-2-yl]urea]

The next lines start with the compound.

SMILES	IC50 [1]	IC50 [2]
O=c1[nH]c(CO)nc(C(F)(F)F)c1Oc1ccc(Cl)c(F)c1 [Example 55]	6.2 nM	120 nM
Nc1nc(C(F)(F)F)c(Oc2cccc(Cl)c2)c(=O)[nH]1 [Example 9, 2-amino-5-(3-chlorophenoxy)-6-(trifluoromethyl)pyrimidin-4(3H)-one]	38 nM	450 nM
NC(=O)Cc1nc(C(F)(F)F)c(Oc2ccc(Cl)c(Cl)c2)c(=O)[nH]1 [Example 46]	20 nM	440 nM
O=c1[nH]c(CO)nc(C(F)(F)F)c1Oc1ccc(F)c(Cl)c1 [Example 52]	7.8 nM	140 nM
O=c1[nH]c(C2CC2)nc(C(F)(F)F)c1Cc1ccc(C(F)(F)F)c(Cl)c1 [Example 24, 5-[3-chloro-4-(trifluoromethyl)benzyl]-2-cyclopropyl-6-(trifluoromethyl)pyrimidin-4(3H)-one]	270 nM	1900 nM
NC(=O)Cc1nc(C(F)(F)F)c(Cc2cccc(Cl)c2)c(=O)[nH]1 [Example 43]	270 nM	880 nM
NC(=O)Cc1nc(C(F)(F)F)c(Oc2ccc(F)c(Cl)c2)c(=O)[nH]1 [Example 36]	110 nM	1600 nM
NC(=O)Cc1nc(C(F)(F)F)c(Oc2ccc(Cl)c(F)c2)c(=O)[nH]1 [Example 39]	160 nM	1800 nM
Nc1nc(C(F)(F)F)c(Sc2ccc(Cl)c(Cl)c2)c(=O)[nH]1 [Example 15, 2-Amino-5-[(3,4-dichlorophenyl)sulphanyl]-6-(trifluoromethyl)pyrimidin-4(3H)-one]	2.3 nM	130 nM
NC(=O)Cc1nc(C(F)(F)F)c(Cc2ccc(Cl)c(C(F)(F)F)c2)c(=O)[nH]1 [Example 48]	31 nM	300 nM
O=c1[nH]c(CO)nc(C(F)(F)F)c1Oc1cccc(Cl)c1 [Example 54]	10 nM	140 nM
O=c1[nH]c(CCO)nc(C(F)(F)F)c1Oc1ccc(Cl)c(Cl)c1 [Example 68]	49 nM	370 nM
NC(=O)Cc1nc(C(F)(F)F)c(Oc2ccc(Cl)c(C(F)(F)F)c2)c(=O)[nH]1 [Example 45]	8 nM	130 nM
Nc1nc(C(F)(F)F)c(Oc2ccc(F)c(C(F)(F)F)c2)c(=O)[nH]1 [Example 6, 2-amino-5-[4-fluoro-3-(trifluoromethyl)phenoxy]-6-(trifluoromethyl)pyrimidin-4(3H)-one]	5.4 nM	150 nM
NC(=O)Cc1nc(C(F)(F)F)c(Oc2ccc(F)c(F)c2)c(=O)[nH]1 [Example 37]	480 nM	3800 nM
